The values that follow come from patent US8951997B2, “Substituted isoquinoline derivative” (D. Western Therapeutics Institute, Inc., priority 2009, dated 2015).

Structures can show the parent of a compound that is named as a salt.

The subject of experiment [1] is mouse model of spinal cord injury. Put plainly: Motor function recovering effect on a spinal cord injury model of the mouse. In kind it is in vivo. Particulars: C57BL/6Cr mice, 3 mg/kg intraperitoneal once a day for 7 days, day 14 after operation, score 0 normal to 72 most serious, saline group 41. As to the method: To examine the usefulness of the compound of the present invention as a therapeutic agent for spinal cord injury, the mouse model of spinal cord injury was prepared and a motor function recovering effect after spinal cord injury was investigated.
Example 14 as a test compound was dissolved in saline and diluted to prepare a test compound solution with a predetermined concentration.
C57BL/6Cr mice (female, body weight: around 19 g, 6 to 8 […] per group) were anesthetized by halothane inhalation. The spinal cord at the level of the eighth thoracic vertebrae was compressed with 20 g of weight for 5 minutes to prepare a spinal cord injury model, according to the method described in the document (Acta Neuropathol. 100, 13-22 (2000)). The test compound was intraperitoneally administered at a dose of 3 mg/kg once a day for 7 consecutive days from the surgery day. After 1, 4, 7, 10, and 14 days from the preparation of the spinal cord injury model, the severity of neurological dysfunction was scored by a partial modification of the performance score described in J. Neurosurg. 93 (Spine 1), 94-101(2000). The details of the behavioral score are as follows:
Open field locomotion (rated 0 to 42)
Toe spread (rated 0 to 5)
Contact place response (rated 0 to 5)
Withdrawal reflexes (rated 0 to 5 for each reflex to extension, pain, and pressure stimulations)
Righting reflex (rated 0 to 5) […]

Experiment [2] concerns rabbits (New Zealand White). Put plainly: Ocular hypotensive effect in rabbits. In kind it is in vivo, rabbit. Particulars: Oryctolagus cuniculus, topical, 0.04 mL dropped to one eye, vehicle to contralateral eye, test compound solution concentration 10 (W/V), read-out: Maximum ocular hypotensive rate. As to the method:
The compound of the present invention was administered to rabbits (New Zealand White, sex: male, 3 to 7 per group) and evaluated for its ocular hypotensive effect.
Each test compound was dissolved in a vehicle (1.04 g of sodium dihydrogen phosphate dihydrate and 0.5 g of sodium chloride dissolved in purified water and then adjusted to pH 7.0 with sodium hydroxide to make the total amount to 100 mL) to prepare a test compound solution with a concentration of 10 (W/V).
The intraocular pressures of the rabbits were measured using Tiolat TonoVet handheld tonometer immediately before administration of test compound. The test compound solution and the vehicle were dropped at a volume of 0.04 mL to one eye and the contralateral eye, respectively, and the intraocular pressures were measured over time in the same way as above. The rate of the intraocular pressure of the eye receiving the test compound solution to that of the eye receiving the vehicle was calculated as an ocular hypotensive rate.

Experiment [3] concerns NG108-15 cells. Put plainly: Neurite outgrowth promoting effect. Particulars: NG108-15 cells, 10, 3, 1, or 0.3 μmol/L, 24 hours, compared with cells cultured in the absence of the compound. In kind it is cell-based. As to the method:
To examine the usefulness of the compound of the present invention as a therapeutic agent for neurodegenerative diseases, NG108-15 cells frequently used as a model of neurons were cultured in the presence of the compound of the present invention, which was then evaluated for its neurite outgrowth promoting effect. Examples 15 and 49 were used as test compounds.
Each test compound was dissolved in dimethyl sulfoxide and diluted to prepare a test compound solution with a predetermined concentration.
The NG108-15 cells (obtained from ATCC) were cultured in a Dulbecco's modified eagle's medium containing 5% fetal bovine serum and 1×HAT (hypoxanthine, aminopterin, and thymidine). The cells were inoculated at 12,000 cells/well to a 24-well plate and statically cultured at 37° C. for 12 hours in an environment of 5% CO2 and 95% air. Then, each test compound was added at a final concentration of 10, 3, 1, or 0.3 μmol/L. 24 hours later, the degree of neurite outgrowth was observed under an inverted microscope.

Experiment [4] relates to rats (SD). Put plainly: Blood pressure lowering effect in rats. The experiment is classed as in vivo, rat. Particulars: male, intraperitoneal, 10 mg/kg. As to the method: The compound of the present invention was intraperitoneally administered to rats (SD, sex: male, 6 rats per group) and evaluated for its blood pressure lowering effect. Example 18 was used as a test compound.
The test compound was dissolved in saline and diluted to prepare a test compound solution with a predetermined concentration.
The test drug was intraperitoneally administered at a dose of 10 mg/kg to the rats (6 rats per group), and their blood pressures and pulse rates were measured over time using Softron Indirect Blood Pressure Meter BP-98A.

The test system of experiment [5] is spontaneously hypertensive rats (SHR/Izm). Put plainly: Blood pressure lowering effect in spontaneously hypertensive rats. In kind it is in vivo, rat. The settings on record: male, intraperitoneal. As to the method:
The compound of the present invention was intraperitoneally administered to spontaneously hypertensive rats (SHR/Izm, sex: male, 4 to 6 rats per group) and evaluated for its blood pressure lowering effect. Examples 32, 34, and 35 were used as test compounds.
Each test compound was dissolved in saline and diluted to prepare a test compound solution with a predetermined concentration.
The test drug was intraperitoneally administered at a dose of 10 mg/kg (except for 30 mg/kg for Example 34) to the animals (4 to 6 rats per group), and their blood pressures and pulse rates were measured over time using Softron Indirect Blood Pressure Meter BP-98A.

Experiment [6] deals with rabbits (New Zealand White). Put plainly: Ocular hypotensive effect in rabbits. The experiment is classed as in vivo, rabbit. The settings on record: Oryctolagus cuniculus, topical, 0.04 mL dropped to one eye, vehicle to contralateral eye, test compound concentration of 2%, read-out: Maximum ocular hypotensive rate.

Consider `C[C@@H]1CNCCCCN1S(=O)(=O)c1ccc2cnccc2c1` [Example 14, (R)-6-(2-methyl-1,4-diazocan-1-ylsulfonyl)isoquinoline dihydrochloride], for which the neurological dysfunction score in experiment [1] is 33. The inhibition in vivo at 10 % in experiment [2] was at least 15%.

For the compound `C[C@H]1CNCCCN1S(=O)(=O)c1ccc2cnccc2c1Br` [Example 15, (S)-5-bromo-6-(2-methyl-1,4-diazepan-1-ylsulfonyl)isoquinoline dihydrochloride], the inhibition in vivo at 10 % in experiment [2] was at least 15%. In addition, the “degree of neurite outgrowth” value in experiment [3] was “remarkable neurite outgrowth”.

With `C[C@@H]1CNCCCN1S(=O)(=O)c1ccc2cnccc2c1` [Example 18, (R)-6-(2-methyl-1,4-diazepan-1-ylsulfonyl)isoquinoline dihydrochloride], the inhibition in vivo at 10 % in experiment [2] is at least 15%. In addition, in experiment [4], the pulse rate result is listed as “increased”. The “systolic blood pressure lowered compared with the value before administration” value in experiment [4] (maximum lowering) is recorded as at least 30%.

Take `C[C@H]1CCNCCN1S(=O)(=O)c1ccc2cnccc2c1` [Example 32, (S)-6-(7-methyl-1,4-diazepan-1-ylsulfonyl)isoquinoline dihydrochloride]: in experiment [2], the inhibition in vivo at 10 % was at least 15%. Also, in experiment [5] (10 mg/kg), the pulse rate result is “increased” and the “systolic blood pressure lowered compared with the value before administration” value stood at 16%.

Turning to `C[C@@H]1CCNCCN1S(=O)(=O)c1ccc2cnccc2c1` [Example 34, (R)-6-(7-methyl-1,4-diazepan-1-ylsulfonyl)isoquinoline dihydrochloride], the inhibition in vivo at 10 % in experiment [2] was at least 15%. In experiment [5] (30 mg/kg), the pulse rate entry is “increased”.

For the compound `C[C@@H]1CCNC[C@@H](C)N1S(=O)(=O)c1ccc2cnccc2c1` [Example 35, (2R,7R)-6-(2,7-dimethyl-1,4-diazepan-1-ylsulfonyl)isoquinoline dihydrochloride], the inhibition in vivo at 10 % in experiment [2] was at least 15%. For the same compound, the pulse rate entry in experiment [5] (10 mg/kg) is listed as “increased”.

Take `Cc1c(S(=O)(=O)N2CCCNC[C@@H]2C)ccc2cnccc12` [Example 49, (S)-5-methyl-6-(2-methyl-1,4-diazepan-1-ylsulfonyl)isoquinoline]: the inhibition in vivo at 10 % in experiment [2] is at least 15%. Besides, the “degree of neurite outgrowth” value in experiment [3] is given as “remarkable neurite outgrowth”.

Take `C[C@@H]1CCNCCN1S(=O)(=O)c1ccc2c(SCCN)nccc2c1` [Example 51, (R)-1-(2-aminoethylthio)-6-(7-methyl-1,4-diazepan-1-ylsulfonyl)isoquinoline trihydrochloride]: in experiment [6], the inhibition in vivo at 2 % was at least 15%.

As to `C[C@@H]1CNCCCCN1S(=O)(=O)c1ccc2c(SCCN)nccc2c1` [Example 52, (R)-1-(2-aminoethylthio)-6-(2-methyl-1,4-diazocan-1-ylsulfonyl)isoquinoline trihydrochloride], the inhibition in vivo at 2 % in experiment [6] is at least 15%.
